Like-named read-outs stand apart in the source and are kept apart here.
Key:
[1] = Urinary quinic acid, hippuric acid, tryptophan and nicotinamide by HPLC; type: in vivo, human; conditions: for urinary tryptophan at start of treatment / urinary nicotinamide at start of treatment: 8 May 2006 and 15 May 2006; for dose excreted at 9 month: urine, oral, read-out: Dose recovery (excrete/dose), excreted as unmetabolized quinic acid
Procedure: Blood samples were collected by venal puncture using vacutainers (red top, 10 ml) usually in the morning (a.m.) after 12 hours of fasting. Serum was separated from the blood clot after setting 2 hr on the bench top before centrifugation for 10 min at 1500×g. Sera prepared in this manner were stored at +4° C. until biochemical analysis usually within 1-30 days of collection. Urine samples were collected as a random 50 ml sample in the A.M. during the treatment and follow-up (after treatment for 8 months) periods. Urine was spun at 5000×g for 15 min and the supernatant stored at +4° C. until analyzed within 1 month of collection. After the first analysis all samples were further stored at −20° C. and used for repeat determinations over time. Trial design for the clinical evaluation of Aqua Bimini™ (quinic acid ammonium chelate) was carried out at Lund University beginning Apr. 28, 2006. […] Repeat serum and urine samples were collected throughout the trial period and then pooled into groups for analysis as 6 weeks before (baseline), 4 weeks of intervention (treatment, 36 days) and 8 months dry-out (no treatment). Urine samples were mixed with 1:2:4 v/v/v of: aqueous urine:95% ethanol:ethyl acetate for 10 min with vigorous shaking. The ethyl acetate layer was allowed to separate with gravity at room temperature, and then it was removed with a pipette and evaporated with an air stream to dryness in a vacuum hood. In this manner 1-2 ml of urine were reconstituted in 0.2 ml water or ethanol which represented a 5-10 fold increase in concentration. […] The urine samples were diluted 1:2:4 v/v/v with ethanol and ethyl acetate, and then the ethyl acetate fraction dried, solubilized in 0.2 ml water and used for HPLC analyses with 20 μl injections directly onto a C18 80×4.6 mm. The mobile phase was 0.2% trifluoroacetic (TFA):methanol:acetonitrile (70:30):water in a ratio 8:8:84 (v/v/v). The UV detector was set at 215 nm, and quinic acid eluted with a retention of 0.97-1.05 min and nicotinamide at 2.6-2.9 min. The detection limit in urine was about 1.5 mg/ml for quinic acid and for nicotinamide it was 0.015 mg/ml. […] The urine samples were diluted 1:2:4 v/v/v with ethanol and ethyl acetate, and then the ethyl acetate fraction dried, solubilized in 0.2 ml water and used for HPLC analyses with 20 μl injections directly onto a C18 80×4.6 mm. The mobile phase was 70:30 v/v, 0.2% TFA: 30% methanol. The UV detector was set at 225 nm. Tryptophan eluted after 5.2-5.4 min and hippuric acid after 3.1-3.4 min.

[2] = Repeat daily oral doses, quinic acid analyzed in serum by HPLC; type: in vivo, human
Procedure: Trial design for the clinical evaluation of Aqua Bimini™ (quinic acid ammonium chelate) was carried out at Lund University beginning Apr. 28, 2006. Two Subjects identity code protected as HL and RP received Aqua Bimini™ at 1500 mg/day and 3000 mg/day, respectively for 4 consecutive weeks (36 days). Repeat serum and urine samples were collected throughout the trial period and then pooled into groups for analysis as 6 weeks before (baseline), 4 weeks of intervention (treatment, 36 days) and 8 months dry-out (no treatment).
Two human volunteers subject two and subject one ingested daily doses of 1500 mg per day or 3000 mg per day and serum samples collected on May 8, May 15, May 18, May 23, May 29, and June 1.
These samples were each analyzed for quinic acid content in 200 μl serum after precipitation with 2 M trichloroacetic acid (TCA). The column used for these experiments was a C18 80×4.6 mm. The mobile phase was 0.2% trifluoroacetic (TFA):methanol 85:15. The UV detector was set at 215 nm and quinic acid eluted with a retention time of 1.40-1.5 min. The sensitivity for detection of this method was about 1 mg quinic acid /ml serum or a detectable dose of 70 mg/kg in humans not 21 to 42 mg/kg as used herein in this study. Thus this protocol could assess if the quinic acid levels in serum would accumulate after repeated daily administration during a period of 4-5 weeks.

[3] = Molar ratio from neutralization of free organic acid with hydroxides; type: physicochemical; conditions: salt or chelate; listed as Quinic acid ammonium salt
Procedure: Determination of salts and chelates of some naturally occurring polyhydroxylated and polycarboxylated organic acids are provided in Table 1. Experimental molar ratios were calculated from neutralization to pH=7.5 of free protonated organic acid (H^+) with sodium, potassium or ammonium hydroxides.

[4] = 3000 mg/day for 36 days (printed HL)
[5] = subject one (3000 mg/day), 1st 4 months no treatment, n=11
[6] = subject one (3000 mg/day), 2nd 4 months no treatment, n=3
[7] = subject one, 3000 mg/day QA (30 days), n=5
[8] = subject two (1500 mg/day), 1st 4 months no treatment, n=6
[9] = subject two (1500 mg/day), 2nd 4 months no treatment, n=6
[10] = subject two, 1500 mg/day QA (30 days), n=5

O=C(O)[C@]1(O)C[C@@H](O)[C@@H](O)[C@H](O)C1 [Aqua Bimini™, quinic acid ammonium chelate]
urinary tryptophan at start of treatment ([1]; 3000 mg/day (printed HL)): 9.32 µM | Increase in urinary quinic acid (QA) metabolite (ratio), tryptophan [1, 4]: 2.44 | Increase tryptophan/increase thiols [1, 4]: 1.94 | average urinary tryptophan during treatment + follow-up [1, 4]: 22.7 µM | Increase in urinary quinic acid (QA) metabolite (ratio), nicotinamide ([1]; HL 1500 mg/day for 36 days): 2.83 | Increase in urinary quinic acid (QA) metabolite (ratio), tryptophan ([1]; HL 1500 mg/day for 36 days): 0.99 | Increase nicotinamide/increase thiols ([1]; HL 1500 mg/day for 36 days): 2.32 | Increase tryptophan/increase thiols ([1]; HL 1500 mg/day for 36 days): 0.82 | average urinary nicotinamide during treatment + follow-up ([1]; HL 1500 mg/day for 36 days): 215 µM | average urinary tryptophan during treatment + follow-up ([1]; HL 1500 mg/day for 36 days): 21.3 µM | urinary nicotinamide at start of treatment ([1]; HL 1500 mg/day): 76 µM | urinary tryptophan at start of treatment ([1]; HL 1500 mg/day): 19.3 µM | Increase in urinary quinic acid (QA) metabolite (ratio), nicotinamide ([1]; RP 3000 mg/day for 36 days): 5.41 | Increase nicotinamide/increase thiols ([1]; RP 3000 mg/day for 36 days): 4.29 | average urinary nicotinamide during treatment + follow-up ([1]; RP 3000 mg/day for 36 days): 57.9 µM | urinary nicotinamide at start of treatment ([1]; RP 3000 mg/day): 10.7 µM | Dose recovery (excrete/dose), excreted as unmetabolized quinic acid ([1]; Subject 3000 mg/day, 9 month evaluation period): 59% | Ratio of total dose excreted in 9 months ([1]; human, in vivo, 9 months): 2.86 | remaining dose absorbed as hippuric acid or further metabolized to other compounds ([1]; human, in vivo, 1 day): 29.7% | dose excreted at 9 month ([1]; human, 1500 mg/day, Subject 1500 mg/day, 9 month evaluation period): 40% | dose excreted at 9 month ([1]; human, 3000 mg/day, Subject 3000 mg/day, 9 month evaluation period): 56% | Urinary excretion daily sample, Tryptophan (avg) ([1]; oral human dose 21-42 mg/kg (1500-3000 mg/day), 33 days, average over 9 months of RP and HL): Tryptophan. = 4.2 mg/liter^b | urinary Nicotinamide [1, 5]: 71 ± 44 µM | urinary Tryptophan [1, 5]: 22 ± 7 µM | urinary Nicotinamide [1, 6]: 71 ± 63 µM | urinary Tryptophan [1, 6]: 19 ± 6 µM | urinary Nicotinamide ([1]; subject one (3000 mg/day), total sample mean, 9 months, n=19): 58 ± 46 µM | urinary Tryptophan ([1]; subject one (3000 mg/day), total sample mean, 9 months, n=19, listed as QA): 19 ± 7 µM | urinary Nicotinamide [1, 7]: 21 ± 16 µM | urinary Tryptophan [1, 7]: 13 ± 5 µM | urinary Nicotinamide [1, 8]: 453 ± 139 µM | urinary Tryptophan [1, 8]: 30 ± 8 µM | urinary Nicotinamide [1, 9]: 24 ± 7 µM | urinary Tryptophan [1, 9]: 17 ± 7 µM | urinary Nicotinamide ([1]; subject two (1500 mg/day), total sample mean, 9 months, n=17): 216 ± 210 µM | urinary Tryptophan ([1]; subject two (1500 mg/day), total sample mean, 9 months, n=17, listed as QA): 22 ± 9 µM | urinary Nicotinamide [1, 10]: 163 ± 91 µM | urinary Tryptophan [1, 10]: 18 ± 5 µM | ratio of nicotinamide/thiols ratios, 3000 versus 1500 mg per day ([1]; theoretical dose ratio 2.0): 1.85 | ratio of tryptophan/thiols ratios, 3000 versus 1500 mg per day ([1]; theoretical dose ratio 2.0): 2.4 | quinic acid in blood serum samples ([2]; 1500 mg or 3000 mg daily oral, 6 samples day 10 to day 37): No quinic acid was found | quinic acid in human serum ([2]; efficacious dose 25 mg/kg in humans, HPLC detection limit 1 mg/kg): no quinic acid found | Determination of structure existing in water [3]: chelate
